Active and inactive are the calls of the source. The rule behind the calls is not given here.
System: GENE-TOX genotoxicity assays, various organisms and cells
Assay: GENE-TOX mutagenicity studies
Details: for call: Assay Type: In vivo carcinogenicity studies
[1] = Species/Cell Type: Salmonella typhimurium (one or more of the five standard strains: TA98, TA100, TA1535, TA1537, and TA1538), Assay Type: Histidine reverse gene mutation, Ames assay, Assay Code: SALT, Evaluation Type: Evaluation A (Pre-1980)
[2] = Species/Cell Type: Nonhuman, Assay Type: Sister-chromatid exchange (SCE) in vitro, Assay Code: SC2+D, Dose Response: With dose response, Evaluation Type: Evaluation B (Post-1980)
[3] = Species/Cell Type: Schizosaccharomyces pombe, Assay Type: Reverse gene mutation, Assay Code: YEZ+, Evaluation Type: Evaluation A (Pre-1980)
[4] = Species/Cell Type: Salmonella typhimurium (one or more of the five standard strains: TA98, TA100, TA1535, TA1537, and TA1538), Assay Type: Histidine reverse gene mutation, Ames assay, Assay Code: SAL+*, Activation: With metabolic activation, Evaluation Type: Evaluation A (Pre-1980)
[5] = Species/Cell Type: Salmonella typhimurium (one or more of the five standard strains: TA98, TA100, TA1535, TA1537, and TA1538), Assay Type: Histidine reverse gene mutation, Ames assay, Assay Code: SAL+, Evaluation Type: Evaluation A (Pre-1980)
[6] = Species/Cell Type: Human diploid fibroblasts, Assay Type: Unscheduled DNA synthesis (UDS) in vitro, DNA effects, Assay Code: UDH+, Evaluation Type: Evaluation A (Pre-1980)
[7] = Species/Cell Type: Bacillus subtilis (H17 vs M45T), Assay Type: Rec-assay, spot test, DNA effects (bacterial DNA repair), Assay Code: REXT, Evaluation Type: Evaluation A (Pre-1980)
[8] = Species/Cell Type: Human lymphocytes, Assay Type: Sister-chromatid exchange (SCE) in vitro, Assay Code: SCL+D, Dose Response: With dose response, Evaluation Type: Evaluation B (Post-1980)
[9] = Species/Cell Type: Human, Assay Type: Sister-chromatid exchange (SCE) in vitro, Assay Code: SC1+D, Dose Response: With dose response, Evaluation Type: Evaluation B (Post-1980)
[10] = Species/Cell Type: Nonhuman, Assay Code: CCG+, Evaluation Type: Evaluation A (Pre-1980)
[11] = Species/Cell Type: Saccharomyces cerevisiae, Assay Type: Reverse gene mutation, Assay Code: YER+, Evaluation Type: Evaluation A (Pre-1980)

C=C(C)[C@H]1O[C@H]2CC[C@@]3(C)[C@@](O)(CC[C@H]4[C@@H]5OC(C)(C)[C@H]6C[C@@H]7C(=C)Cc8c(Cl)cc9[nH]c(c5c9c8[C@@]76O)[C@@]43C)[C@]23O[C@@H]3[C@H]1O
mutagenic call (Species/Cell Type: Saccharomyces cerevisiae, Assay Type: Mitotic recombination or gene conversion, Assay Code: YEH-, Evaluation Type: Evaluation A (Pre-1980)): inactive; negative | mutagenic call [1]: no conclusion

O=[N+]([O-])O.[Cr]
mutagenic call [1]: no conclusion

Cc1ccc([N+](=O)[O-])c(O)c1
mutagenic call (Species/Cell Type: Allium cepa, Assay Type: Chromosome aberrations, Assay Code: ALC+, Evaluation Type: Evaluation A (Pre-1980)): active; positive

CN(N=O)C(=O)Nc1ccc(Br)cc1
mutagenic call [2]: active; positive

CC(C)(O)C(Cl)(Cl)Cl
mutagenic call (Species/Cell Type: Mammalian polychromatic erythrocytes, Assay Type: Micronucleus test, chromosome aberrations, Assay Code: MNTT, Evaluation Type: Evaluation B (Post-1980)): no conclusion

NCCBr
mutagenic call [3]: active; positive

CC(C)N(C(=O)SC/C(Cl)=C/Cl)C(C)C
mutagenic call (Species/Cell Type: Nonhuman, Assay Type: Sister-chromatid exchange (SCE) in vitro, Assay Code: SC2+D*, Activation: With metabolic activation, Dose Response: With dose response, Evaluation Type: Evaluation B (Post-1980)): active; positive | mutagenic call [4]: active; positive

CCCCCCCCCCCCCC(=O)N(O)c1ccc2c(c1)Cc1ccccc1-2
mutagenic call (Species/Cell Type: Human diploid fibroblasts, Assay Type: Unscheduled DNA synthesis (UDS) in vitro, DNA effects, Assay Code: UDH-, Evaluation Type: Evaluation A (Pre-1980)): inactive; negative | mutagenic call [5]: active; positive

CCCCCCCCCCCCCC(=O)ON(C(=O)CCCCCCCCCCCCC)c1ccc2c(c1)Cc1ccccc1-2
mutagenic call [6]: active; positive | mutagenic call [1]: no conclusion

CS/C(C)=N/OC(=O)N(C)N=O
mutagenic call [5]: active; positive

O=CNc1nc(-c2cc([N+](=O)[O-])c[nH]2)cs1
mutagenic call [1]: no conclusion

[Cl][Hg]
mutagenic call (Species/Cell Type: Bacillus subtilis (H17 vs M45), Assay Type: Rec-assay, spot test, DNA effects (bacterial DNA repair), Assay Code: REW+, Evaluation Type: Evaluation A (Pre-1980)): active; positive | mutagenic call [7]: no conclusion | mutagenic call (Species/Cell Type: Nonhuman, Assay Type: Sister-chromatid exchange (SCE) in vitro, Assay Code: SC2+, Evaluation Type: Evaluation B (Post-1980)): active; positive

OO
mutagenic call (Species/Cell Type: Escherichia coli polA (W3119 vs P3478), Assay Type: Rec-assay, DNA effects (bacterial DNA repair), Assay Code: RE1+, Evaluation Type: Evaluation A (Pre-1980)): active; positive | mutagenic call [6]: active; positive | mutagenic call [8]: active; positive | mutagenic call [9]: active; positive | mutagenic call (Species/Cell Type: Neurospora crassa, Assay Type: Reverse gene mutation, Assay Code: NER+, Evaluation Type: Evaluation A (Pre-1980)): active; positive | mutagenic call [2]: active; positive | mutagenic call [1]: no conclusion | mutagenic call [3]: active; positive | mutagenic call (Species/Cell Type: Vicia faba, Assay Type: Chromosome aberrations, Assay Code: VIC-, Evaluation Type: Evaluation A (Pre-1980)): inactive; negative

CNC(=O)Nc1nc(-c2ccccc2)cs1
mutagenic call (Species/Cell Type: Salmonella typhimurium, Serratia marcesens, Assay Type: Forward and reverse gene mutation, host-mediated assay, Assay Code: HM2+, Evaluation Type: Evaluation A (Pre-1980)): active; positive

CCNC(N)=O
mutagenic call (Species/Cell Type: Salmonella typhimurium, Assay Type: Forward and reverse gene mutation, host-mediated assay, Assay Code: HMA+, Evaluation Type: Evaluation A (Pre-1980)): active; positive

O=[N+]([O-])c1cc([N+](=O)[O-])c2ccc(S(=O)(=O)O)cc2c1O
mutagenic call (Species/Cell Type: Bacillus subtilis (H17 vs M45), Assay Type: Rec-assay, spot test, DNA effects (bacterial DNA repair), Assay Code: REWT, Evaluation Type: Evaluation A (Pre-1980)): no conclusion | mutagenic call [7]: no conclusion | mutagenic call [5]: active; positive | mutagenic call [1]: no conclusion

CC1CC(=O)O1 (configuration not stated)
call [10]: active; positive

CCC1(CC)C(=O)NC(=O)NC1=O
mutagenic call (Species/Cell Type: Nonhuman bone marrow, Assay Type: Chromosome aberrations, in vivo, Assay Code: CY#+, Evaluation Type: Evaluation A (Pre-1980)): active; positive | mutagenic call (Species/Cell Type: Nonhuman, Assay Type: Sister-chromatid exchange (SCE) in vitro, Assay Code: SC2-, Evaluation Type: Evaluation A (Pre-1980)): inactive; negative

[Cl][Nb]([Cl])([Cl])([Cl])[Cl]
mutagenic call (Species/Cell Type: Bacillus subtilis (H17 vs M45), Assay Type: Rec-assay, spot test, DNA effects (bacterial DNA repair), Assay Code: REW-, Evaluation Type: Evaluation A (Pre-1980)): inactive; negative

CC(Br)CBr (configuration not stated)
mutagenic call (Species/Cell Type: Drosophila melanogaster, Assay Type: Sex-linked recessive lethal gene mutation, Assay Code: SRL+, Evaluation Type: Evaluation A (Pre-1980)): active; positive

CCCCCCCCCCCCCC(=O)N(C)N=O
mutagenic call [11]: active; positive

O[C@@H]1C=Cc2cc3ccc4cccc5ccc(c2[C@@H]1O)c3c45
mutagenic call (Species/Cell Type: Chinese hamster lung (V79) cells, Assay Type: Forward gene mutation at the HPRT or ouabain locus, Assay Code: V79-, Evaluation Type: Evaluation A (Pre-1980)): inactive; negative | mutagenic call [1]: no conclusion

Cc1c(N(C)CS(=O)(=O)O)c(=O)n(-c2ccccc2)n1C
mutagenic call (Species/Cell Type: Human, Assay Type: Sister-chromatid exchange (SCE) in vitro, Assay Code: SC1T, Evaluation Type: Evaluation B (Post-1980)): no conclusion

CCCCC(=O)N(C)N=O
mutagenic call [11]: active; positive

O[C@@H]1[C@@H]2O[C@@H]2c2cc3c(ccc4ccccc43)cc2[C@H]1O
mutagenic call (Species/Cell Type: Chinese hamster lung (V79) cells, Assay Type: Forward gene mutation at the HPRT or ouabain locus, Assay Code: V79+, Evaluation Type: Evaluation A (Pre-1980)): active; positive | mutagenic call [5]: active; positive

CCCCNC(=O)NS(=O)(=O)c1ccc(C)cc1
mutagenic call (Species/Cell Type: Mammalian polychromatic erythrocytes, Assay Type: Micronucleus test, chromosome aberrations, Assay Code: MNT+, Evaluation Type: Evaluation A (Pre-1980)): active; positive | mutagenic call (Species/Cell Type: Nonhuman, Assay Type: Sister-chromatid exchange (SCE) in vivo, Assay Code: SC3+D, Dose Response: With dose response, Evaluation Type: Evaluation B (Post-1980)): active; positive

Cc1cc(O)c(C(C)C)cc1O
mutagenic call (Species/Cell Type: Allium cepa, Assay Type: Chromosome aberrations, Assay Code: ALC-, Evaluation Type: Evaluation A (Pre-1980)): inactive; negative

CC(C)(O)CCc1ccc(O)c2c(=O)c3c(O)c4c(cc3oc12)O[C@H]1OC=C[C@@]41O
mutagenic call [4]: active; positive

Nc1cc([N+](=O)[O-])ccc1O
mutagenic call (Species/Cell Type: Mammalian polychromatic erythrocytes, Assay Type: Micronucleus test, chromosome aberrations, Assay Code: MNTT, Evaluation Type: Evaluation A (Pre-1980)): no conclusion | mutagenic call (Species/Cell Type: Neurospora crassa, Assay Type: Aneuploidy, chromosome aberrations, Assay Code: NEN-, Evaluation Type: Evaluation A (Pre-1980)): inactive; negative | mutagenic call (Species/Cell Type: Rodents, Sex: Male, Assay Type: Dominant lethal test, Assay Code: DLT-, Evaluation Type: Evaluation A (Pre-1980)): inactive; negative

CCCOc1nc2c(c(=O)n(C)c(=O)n2C)n1C
mutagenic call (Species/Cell Type: Allium cepa, Assay Type: Chromosome aberrations, Assay Code: ALC+D, Dose Response: With dose response, Evaluation Type: Evaluation A (Pre-1980)): active; positive

COc1ccc2c3c(n(CC=C(C)C)c2c1)[C@H](C=C(C)C)N1C(=O)[C@@H]2CCCN2C(=O)[C@]1(O)[C@H]3O
mutagenic call [1]: no conclusion

C=COC(C)=O
mutagenic call [8]: active; positive | mutagenic call [9]: active; positive | mutagenic call (Species/Cell Type: Mammalian polychromatic erythrocytes, Assay Type: Micronucleus test, chromosome aberrations, Assay Code: MNT+, Evaluation Type: Evaluation B (Post-1980)): active; positive | call (Species/Cell Type: Nonhuman, Assay Code: CCG+L, Evaluation Type: Evaluation A (Pre-1980)): active; positive | mutagenic call [2]: active; positive | mutagenic call (Species/Cell Type: Salmonella typhimurium (one or more of the five standard strains: TA98, TA100, TA1535, TA1537, and TA1538), Assay Type: Histidine reverse gene mutation, Ames assay, Assay Code: SAL-, Evaluation Type: Evaluation A (Pre-1980)): inactive; negative | mutagenic call (Species/Cell Type: Syrian hamster embryo (SA7/SHE) cells, Assay Type: Cell transformation, viral enhanced, Assay Code: CT7+, Evaluation Type: Evaluation A (Pre-1980)): active; positive

Nc1ccc(Cl)cc1N
call [10]: active; positive

Reference: PubChem BioAssay AID1259408 (Genetic Toxicology Data Bank (GENE-TOX), 2018)
